Reference: ChEMBL document CHEMBL4390686, “Design, Synthesis, and Pharmacokinetic Evaluation of Phosphate and Amino Acid Ester Prodrugs for Improving the Oral Bioavailability of the HIV-1 Protease Inhibitor Atazanavir” (J Med Chem, 2019)
≈ marks a conversion by molar mass, not a printed value.

How the values were obtained:
[1] = Stability in pH 6.5 30%CH3CN/phosphate buffer assessed as parent compound remaining at 50 mM measured after 30 mins by RP-UPLC analysis; type: physicochemical; conditions: read-out: Stability
[2] = Cmax in cannulated Sprague-Dawley rat assessed as atazanavir level at 30 mg/kg equiv of atazanavir administered orally by UPLC/MS/MS analysis; type: ADME, organism-based; parameters: dose 30 mg/kg, route oral; conditions: in vivo, po
[3] = Stability in pH 6.5 30%CH3CN/phosphate buffer assessed as parent compound remaining at 50 mM measured after 2 mins by RP-UPLC analysis; type: physicochemical; conditions: read-out: Stability
[4] = Tmax in cannulated Sprague-Dawley rat assessed as atazanavir level at 30 mg/kg equiv of atazanavir administered orally by UPLC/MS/MS analysis; type: ADME, organism-based; conditions: in vivo, po
[5] = AUClast in cannulated Sprague-Dawley rat assessed as atazanavir level at 30 mg/kg equiv of atazanavir administered orally by UPLC/MS/MS analysis; type: ADME, organism-based; parameters: dose 30 mg/kg, route oral, time 0 - last; conditions: in vivo, po
[6] = Cmin in cannulated Sprague-Dawley rat assessed as atazanavir level at 3 mg/kg equiv of atazanavir administered orally measured after 24 hrs by UPLC/MS/MS analysis; type: ADME, organism-based; conditions: in vivo, po, read-out: Cmin
[7] = Cmin in cannulated Sprague-Dawley rat assessed as atazanavir level at 30 mg/kg equiv of atazanavir administered orally measured after 24 hrs by UPLC/MS/MS analysis; type: ADME, organism-based; conditions: in vivo, po, read-out: Cmin
[8] = Cmin in cannulated Sprague-Dawley rat at 3 mg/kg equiv of atazanavir administered orally measured after 24 hrs by UPLC/MS/MS analysis; type: ADME, organism-based; conditions: in vivo, po, BLD = below limit of detection
[9] = Cmin in cannulated Sprague-Dawley rat at 30 mg/kg equiv of atazanavir administered orally measured after 24 hrs by UPLC/MS/MS analysis; type: ADME, organism-based; conditions: in vivo, po, BLD = below limit of detection
[10] = rat, in vivo, po, 3 mg/kg
[11] = rat, in vivo, po, 3 mg/kg; remark: listed apart in the source
[12] = rat, in vivo, po, 3 mg/kg; remark: listed apart in the source
Description: AUClast in cannulated Sprague-Dawley rat assessed as atazanavir level at 3 mg/kg equiv of atazanavir administered orally by UPLC/MS/MS analysis

[13] = physchem; conditions: 30% CH3CN/HCl buffer, pH 1
Description: Half life in pH 1 30%CH3CN/HCl buffer at 50 mM by RP-UPLC analysis

[14] = physchem; conditions: 30% CH3CN/acetate buffer, pH 4
Description: Half life in pH 4 30%CH3CN/acetate buffer at 50 mM by RP-UPLC analysis

[15] = physchem; conditions: 30% CH3CN/phosphate buffer, pH 6.5
Description: Half life in pH 6.5 30%CH3CN/phosphate buffer at 50 mM by RP-UPLC analysis

[16] = physchem; conditions: HCl buffer, pH 1
Description: Aqueous solubility of the compound in pH 1 HCl buffer by RP-UPLC analysis

[17] = Ratio of test compound to atazanavir aqueous solubility in pH 6.5 phosphate buffer by RP-UPLC analysis; type: physicochemical
[18] = physchem; conditions: acetate buffer, pH 4
Description: Aqueous solubility of the compound in pH 4 acetate buffer by RP-UPLC analysis

[19] = physchem; conditions: phosphate buffer, pH 6.5
Description: Aqueous solubility of the compound in pH 6.5 phosphate buffer by RP-UPLC analysis

[20] = biological target: Protease (Human immunodeficiency virus 1, UniProt Q9YQ12)
Protease, sequence (Q9YQ12 whole entry): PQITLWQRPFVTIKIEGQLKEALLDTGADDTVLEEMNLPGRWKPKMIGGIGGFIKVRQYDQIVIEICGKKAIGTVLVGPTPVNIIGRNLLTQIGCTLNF
Description: Inhibition of HIV1 protease activity

[21] = tested on: Human immunodeficiency virus 1
Description: Antiviral activity against HIV1 NL4-3 infected in human MT2 cells assessed as reduction in viral yield measured after 4 days by EnduRen live cell substrate based luciferase reporter gene assay

[22] = physchem; conditions: 30% CH3CN/phosphate buffer, pH 7.4
Description: Half life in pH 7.4 30%CH3CN/phosphate buffer at 50 mM by RP-UPLC analysis

[23] = physchem; conditions: phosphate buffer, pH 7.4
Description: Aqueous solubility of the compound in pH 7.4 phosphate buffer by RP-UPLC analysis

[24] = in vitro; conditions: human, Caco-2
Description: Apparent permeability across apical to basolateral side in human Caco2 cells at 2 uM

[25] = in vitro; conditions: human, Caco-2; remark: listed apart in the source
Description: Apparent permeability across basolateral to apical side in human Caco2 cells at 2 uM

[26] = in vitro; conditions: human, Caco-2; remark: listed apart in the source
Description: Efflux ratio of apparent permeability across basolateral to apical side over apical to basolateral side in human Caco2 cells

[27] = Prodrug conversion in cannulated Sprague-Dawley rat plasma assessed as atazanavir formation at 3 mg/kg equiv of atazanavir administered orally by UPLC/MS/MS analysis; type: ADME, organism-based; conditions: in vivo, po
[28] = Prodrug conversion assessed as recombinant rat intestinal alkaline phosphatase-mediated compound dephosphorylation by measuring half life by UPLC-MS/MS analysis; type: ADME
[29] = Prodrug conversion assessed as recombinant human intestinal alkaline phosphatase-mediated compound dephosphorylation by measuring half life by UPLC-MS/MS analysis; type: ADME; conditions: isolated protein
[30] = Half life in pH 2 30%CH3CN solution at 50 mM by RP-UPLC analysis; type: physicochemical
[31] = Prodrug conversion assessed as calf intestinal alkaline phosphatase-mediated compound dephosphorylation by UPLC-MS/MS analysis; type: ADME, Bos taurus; conditions: cattle, isolated protein
[32] = Prodrug conversion assessed as calf intestinal alkaline phosphatase-mediated compound dephosphorylation by measuring half life by UPLC-MS/MS analysis; type: ADME, Bos taurus; conditions: cattle, isolated protein
[33] = Drug recovery in mesenteric vein plasma of closed loop rat intestinal model at 1 mg/kg administered as cassette dose by LC/MS analysis; type: ADME, organism-based; conditions: in vivo
[34] = Drug recovery in intestinal homogenates of closed loop rat intestinal model at 1 mg/kg administered as cassette dose by LC/MS analysis; type: ADME, organism-based, Intestine; conditions: intestinal homogenate, other: closed loop intestinal model, read-out: Drug recovery
[35] = Drug recovery in intestinal content of closed loop rat intestinal model at 1 mg/kg administered as cassette dose by LC/MS analysis; type: ADME, organism-based; conditions: in vivo

Row | Compound | Cmax [10] [nM] | Tmax [11] [h] | AUClast [12] [µM·h] | half-life at 50000 µM [13] [h] | half-life at 50000 µM [14] [h] | half-life at 50000 µM [15] [h] | solubility [16] [µg/mL] | solubility [18] [µg/mL] | solubility [19] [µg/mL] | Drug metabolism [27] | other results
1 | COC(=O)N[C@H](C(=O)N[C@@H](Cc1ccccc1)[C@H](CN(Cc1ccc(-c2ccccn2)cc1)NC(=O)[C@@H](NC(=O)OC)C(C)(C)C)OC(=O)CN(C)C(=O)[C@@H](N)Cc1ccccc1)C(C)(C)C.Cl.Cl | 794 | 1 | 1.533 | > 500 | 9.03 | 0.08 | 1170 |  |  |  | remaining at 0.5 h, 50000 µM [1]: 2%; Cmax [2]: 8760 nM; remaining at 2 min, 50000 µM [3]: 86.1%; Tmax [4]: 1 h; AUClast [5]: 16.58 µM·h; concentration [6]: 1.9 nM; concentration [7]: 30.4 nM; Cmin [8]: Bld; Cmin [9]: Bld
2 | COC(=O)N[C@H](C(=O)N[C@@H](Cc1ccccc1)[C@H](CN(Cc1ccc(-c2ccccn2)cc1)NC(=O)[C@@H](NC(=O)OC)C(C)(C)C)OC(=O)CNC(=O)[C@@H](N)Cc1ccccc1)C(C)(C)C | 9 | 0.4 | 0.016 | > 500 | > 500 | 73.4 | > 2900 | > 3500 | > 640 |  | Ratio [17]: > 200
3 | COC(=O)N[C@H](C(=O)N[C@@H](Cc1ccccc1)[C@H](CN(Cc1ccc(-c2ccccn2)cc1)NC(=O)[C@@H](NC(=O)OC)C(C)(C)C)OC(=O)CN(C)C)C(C)(C)C | 66.8 | 0.3 | 0.0457 | > 500 | > 500 |  | > 1400 | > 1700 |  |  | IC50 [20]: 4 to 1140 nM; EC50 [21]: 0.9 to 1250 nM; half-life at 50000 µM [22]: 188 h; solubility [23]: 360 µg/mL (≈ 456 µM); Papp A→B at 2 µM [24]: < 1.5 ×10⁻⁶ cm/s; Papp B→A at 2 µM [25]: 13.2 ×10⁻⁶ cm/s; efflux ratio [26]: > 8.8
4 | COC(=O)N[C@H](C(=O)N[C@@H](Cc1ccccc1)[C@H](CN(Cc1ccc(-c2ccccn2)cc1)NC(=O)[C@@H](NC(=O)OC)C(C)(C)C)OC(=O)CNC(=O)[C@H](N)Cc1ccccc1)C(C)(C)C | 51 | 0.5 | 0.307 | > 500 | > 500 | 88.5 | > 2100 | > 2300 | 230 (≈ 253 µM) |  | Ratio [17]: > 200
5 | COC(=O)N[C@H](C(=O)N[C@@H](Cc1ccccc1)[C@H](CN(Cc1ccc(-c2ccccn2)cc1)NC(=O)[C@@H](NC(=O)OC)C(C)(C)C)OCOP(=O)([O-])[O-])C(C)(C)C.[Na+].[Na+] | 257 | 0.25 | 0.277 | 0.2 | > 500 | > 500 |  | > 930 | > 1060 | Metabolite_Detected | t1/2 [28]: > 0.167 h; t1/2 [29]: 0.35 h; half-life at 50000 µM [30]: 1.95 h
6 | Cc1cccc(C)c1OCC(=O)N[C@@H](Cc1ccccc1)[C@H](C[C@H](Cc1ccccc1)NC(=O)[C@H](C(C)C)N1CCCNC1=O)OP(=O)(O)O |  |  |  |  |  |  |  |  |  | Metabolite_Notdetected | Drug metabolism [31]: Metabolite_Notdetected
7 | COC(=O)N[C@H](C(=O)N[C@@H](Cc1ccccc1)[C@H](CN(Cc1ccc(-c2ccccn2)cc1)NC(=O)[C@@H](NC(=O)OC)C(C)(C)C)OP(=O)(O)O)C(C)(C)C |  |  |  | 334 | 334 | 250 | > 2650 | 250 (≈ 319 µM) | > 2870 | Metabolite_Notdetected | t1/2 [28]: > 2 h; t1/2 [29]: > 2 h
8 | CC(C)CN(C[C@@H](OP(=O)(O)O)[C@H](Cc1ccccc1)NC(=O)O[C@H]1CCOC1)S(=O)(=O)c1ccc(N)cc1 [FOSAMPRENAVIR] |  |  |  |  |  |  |  |  |  | Metabolite_Notdetected | Drug metabolism [31]: Metabolite_Notdetected
9 | Cc1cccc(C)c1OCC(=O)N[C@@H](Cc1ccccc1)[C@@H](O)C[C@H](Cc1ccccc1)NC(=O)[C@H](C(C)C)N1CCCNC1=O [LOPINAVIR] |  |  |  |  |  |  |  |  |  | Metabolite_Detected | t1/2 [32]: 0.22 h
10 | CC(C)(C)NCC(O)COc1cccc2c1CC(O)C(O)C2 (stereo not given) [NADOLOL] |  |  |  |  |  |  |  |  |  |  | Drug recovery [33]: 1.3%; recovery [34]: 14%; Drug recovery [35]: 45%
